In assay [1] the target is T1, Adenosine receptor A1 (Homo sapiens) (UniProt P30542).
T1 sequence (whole entry): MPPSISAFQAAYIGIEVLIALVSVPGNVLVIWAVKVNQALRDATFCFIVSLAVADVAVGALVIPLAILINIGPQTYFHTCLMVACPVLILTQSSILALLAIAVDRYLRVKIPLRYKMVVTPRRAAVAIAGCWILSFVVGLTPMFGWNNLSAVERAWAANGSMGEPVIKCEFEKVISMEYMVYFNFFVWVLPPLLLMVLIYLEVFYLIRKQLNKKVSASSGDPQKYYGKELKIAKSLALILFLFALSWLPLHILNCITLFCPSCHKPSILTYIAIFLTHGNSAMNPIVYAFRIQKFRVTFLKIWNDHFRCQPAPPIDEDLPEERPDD
In words: Intrinsic efficacy at Homo sapiens (human) adenosine A1 receptor expressed in CHO cells assessed as increase in intracellular calcium level by FLIPR assay relative to NECA. It counts as functional, cell-based. (In general: Calcium flux is commonly read through the fluorescence of an indicator in the cells.)

The next assay deals with T2, Adenosine receptor A1 (Homo sapiens, UniProt P30542).
T2 sequence (P30542 whole entry): T1 sequence (whole entry)
In words: Agonist activity at Homo sapiens (human) adenosine A1 receptor expressed in CHO cells. The class given is cell-based.

In assay [2] the target is T1, Adenosine receptor A1 (Homo sapiens). Nature of the assay: Agonist activity at Homo sapiens (human) adenosine A1 receptor expressed in CHO cells relative to NECA. It counts as cell-based.
Assay [3] concerns the target T3, Adenosine receptor A2b (Homo sapiens) (UniProt P29275).
T3 sequence (whole entry): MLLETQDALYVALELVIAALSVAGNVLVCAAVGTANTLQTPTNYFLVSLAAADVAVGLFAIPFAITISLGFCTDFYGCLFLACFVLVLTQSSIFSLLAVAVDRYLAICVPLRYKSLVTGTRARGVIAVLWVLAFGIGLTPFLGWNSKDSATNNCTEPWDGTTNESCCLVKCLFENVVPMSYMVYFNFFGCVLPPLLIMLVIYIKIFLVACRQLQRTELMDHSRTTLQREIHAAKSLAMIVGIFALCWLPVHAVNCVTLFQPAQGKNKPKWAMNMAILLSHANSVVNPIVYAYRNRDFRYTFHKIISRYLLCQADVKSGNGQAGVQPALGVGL
In words: Agonist activity at Homo sapiens (human) adenosine A2b receptor expressed in CHO cells relative to NECA. It counts as cell-based.

Assay [4] has as its target T4, Adenosine receptor A2a (Homo sapiens, UniProt P29274). Nature of the assay: Agonist activity at Homo sapiens (human) adenosine A2a receptor expressed in CHO cells relative to NECA. The class given is cell-based.
For another assay, the target named is T5, Adenosine receptor A3 (Homo sapiens, UniProt P0DMS8).
T5 sequence (P0DMS8 whole entry): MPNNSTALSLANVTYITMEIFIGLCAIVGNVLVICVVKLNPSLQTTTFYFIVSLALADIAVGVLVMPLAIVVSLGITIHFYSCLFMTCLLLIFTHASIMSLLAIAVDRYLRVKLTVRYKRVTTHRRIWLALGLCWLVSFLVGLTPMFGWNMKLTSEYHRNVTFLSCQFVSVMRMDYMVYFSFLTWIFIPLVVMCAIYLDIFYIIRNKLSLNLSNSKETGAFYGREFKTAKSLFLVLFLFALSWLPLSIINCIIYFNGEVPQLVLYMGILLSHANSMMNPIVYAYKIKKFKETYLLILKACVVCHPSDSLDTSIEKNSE
Nature of the assay: Agonist activity at Homo sapiens (human) adenosine A3 receptor expressed in CHO cells. The class given is cell-based.

The target in the next assay is T6, Adenosine receptor A2b (Homo sapiens, UniProt P29275).
T6 sequence (P29275 whole entry): T3 sequence (whole entry)
In words: Agonist activity at Homo sapiens (human) adenosine A2b receptor expressed in CHO cells. It counts as cell-based.

The target in assay [5] is T7, Adenosine receptor A3 (Homo sapiens) (UniProt P0DMS8).
T7 sequence (whole entry): T5 sequence (P0DMS8 whole entry)
Nature of the assay: Agonist activity at Homo sapiens (human) adenosine A3 receptor expressed in CHO cells relative to NECA. It counts as cell-based.

For assay [6], the target named is T4, Adenosine receptor A2a. In words: Agonist activity at Homo sapiens (human) adenosine A2a receptor expressed in CHO cells. The class given is functional, cell-based.

Some results are limits rather than exact numbers.

T4 sequence (P29274 whole entry): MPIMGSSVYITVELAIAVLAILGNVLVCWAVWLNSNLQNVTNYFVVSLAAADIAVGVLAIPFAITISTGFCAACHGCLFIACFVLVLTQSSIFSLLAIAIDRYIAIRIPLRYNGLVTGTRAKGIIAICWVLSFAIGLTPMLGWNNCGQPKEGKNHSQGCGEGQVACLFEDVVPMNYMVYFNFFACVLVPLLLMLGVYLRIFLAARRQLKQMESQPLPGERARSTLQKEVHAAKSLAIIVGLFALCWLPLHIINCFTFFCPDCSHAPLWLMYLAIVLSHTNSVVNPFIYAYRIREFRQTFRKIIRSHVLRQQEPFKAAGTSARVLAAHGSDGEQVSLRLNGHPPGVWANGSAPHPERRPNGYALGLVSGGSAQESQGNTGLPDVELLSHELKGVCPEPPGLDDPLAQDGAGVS

In general, Ki refers to a dissociation constant, usually derived from enzyme kinetics or from competition with a known ligand. Turning to `O[C@@H]1[C@H](O)[C@@H](CF)O[C@H]1n1cnc2c(NC3CCOCC3)ncnc21`, the Efficacy in [1] worked out at 84%. Also, the inhibition constant (Ki) is 25.1 nM at Adenosine receptor A1, 2510 nM at Adenosine receptor A3, over 100000 nM at Adenosine receptor A2b and 5010 nM at Adenosine receptor A2a [6]. Besides, the Ratio in assay [2] was 2.4; in assay [3] it was over 273; at Adenosine receptor A2a [4], 212; in assay [5], over 251.
As to `OC[C@H]1O[C@@H](n2cnc3c(N[C@H]4CCC[C@@H]4O)ncnc32)[C@H](O)[C@@H]1O` [GR-79236], in [1], the Efficacy was found to be 106%. Also, the inhibition constant Ki on Adenosine receptor A1 was 15.8 nM; at Adenosine receptor A3, 2510 nM; at Adenosine receptor A2b, 31600 nM; at Adenosine receptor A2a [6], 25100 nM. In addition, the Ratio in [2] was 1.9; in assay [3], 195; on Adenosine receptor A2a [4] it was 445; in assay [5] it was over 190.
Regarding `COC[C@H]1O[C@@H](n2cnc3c(Nc4ccc(O)c(F)c4)ncnc32)[C@H](O)[C@@H]1O` [GR-190178], in assay [1], the Efficacy turned out to be 12%. Moreover, the Ki is 251 nM on Adenosine receptor A1, 3160 nM on Adenosine receptor A3 and over 100000 nM at Adenosine receptor A2a [6]. The Ratio is 12 in assay [2], over 348 in [3], 725 at Adenosine receptor A2a [4] and over 364 in assay [5].

The values are drawn from ChEMBL document CHEMBL3045486, “Potent, Selective Adenosine A1 Agonists as Potential Analgesics” (Med Chem Res, 2004).
